Test results reported in patent US9283236B2 (HUMAN MATRIX SCIENCES, LLC, priority 2008, dated 2016).
Entries after “also recorded” stand apart in the source; their conditions may differ. Like-named read-outs stand apart in the source and are kept apart here.

Assays:
[1] = tested on: human fetal cardiac fibroblasts; test: One-step RT-PCR of elastin mRNA in cardiac fibroblast cultures; format: cell-based; conditions: for effect on aldosterone-induced increase in elastin mRNA levels: agent added 1 hour (CT04 2 hours) before aldosterone
[2] = tested on: human fetal cardiac fibroblasts; test: Quantitative assay of [3H]valine-labeled insoluble elastin; format: cell-based; conditions: for effect on aldosterone-induced increase in insoluble elastin production: agent added 1 hour before aldosterone (50 nM or 1 to 50 nmol/L)
[3] = tested on: human fetal cardiac fibroblasts; test: One-step RT-PCR of collagen type I mRNA in cardiac fibroblast cultures; format: cell-based; conditions: 1 hour pretreatment before 1 to 50 nmol/L aldosterone; spironolactone 2 μmol/L, RU 486 1 μmol/L
[4] = tested on: human fetal cardiac fibroblasts; test: Immunostaining of collagen type I fibers in confluent cultures; format: cell-based; conditions: pretreatment before 1 to 50 nmol/L aldosterone; RU 486 1 μmol/L; FIG. 1
[5] = tested on: adult human cardiac fibroblasts; test: One-step RT-PCR of elastin mRNA in adult cardiac fibroblasts; format: cell-based; conditions: 1 hour pretreatment before aldosterone
[6] = tested on: human fetal cardiac fibroblasts; test: Quantitative assay of [3H]valine-labeled immunoprecipitable tropoelastin; format: cell-based; conditions: spironolactone with 1 to 50 nmol/L aldosterone, 72 hours
Procedure: Fetal human cardiac fibroblasts were grown to confluence in 35-mm culture dishes (100,000 cells/dish) in quadruplicate. […] Cultures were incubated for 72 hours, and the soluble and insoluble elastin were assessed separately in each dish. The cells were extensively washed with phosphate-buffered saline, and the soluble proteins present in the intracellular compartments were extracted overnight at 4° C. with 0.1 mol/L acetic acid in the presence of proteinase inhibitors. After centrifugation, the supernatants were precleaned by 30-minute incubation with 50 μl of 4% protein A-beaded agarose, and then 500 μl of the supernatant was incubated with 5 μg of polyclonal antibody to tropoelastin for 2 hours and subsequently with 50 μl of 4% protein A-beaded agarose for 3 hours at 4° C. The protein A-containing beads were sedimented by centrifugation, washed with immunoprecipitation buffer, mixed with scintillation fluid, and counted. […] The resulting pellets containing the insoluble elastin were then solubilized by boiling in 200 μl of 5.7 N HCl for 1 hour, and the aliquots were mixed in scintillation fluid and counted. […] Final results reflecting amounts of metabolically labeled insoluble elastin in individual cultures were normalized per their DNA content and expressed as counts per minute per 1 μg of DNA.

[7] = tested on: adult human cardiac fibroblasts; test: Anti-elastin immunostaining in adult cardiac fibroblasts; format: cell-based; conditions: spironolactone pretreatment
Procedure: Control cell cultures received an equal amount of the solvent vehicle. […] ScienCell (San Diego, Calif.). At the end of the 72-hour incubation period with the indicated treatment, confluent cultures were either fixed in ice-cold 100% methanol at -20° C. […] The cultures were then incubated for 1 hour with 10 μg/ml polyclonal antibody to tropoelastin or with 10 μg/ml polyclonal antibody to collagen type I. All cultures were then incubated for an additional hour with fluorescein-conjugated goat anti-rabbit or with fluorescein-conjugated rabbit anti-goat secondary antibodies to detect elastin and collagen type I staining, respectively. Nuclei were counterstained with propidium iodide. Secondary antibody alone was used as a control. All of the cultures were then mounted in Elvanol and examined with a Nikon Eclipse […] microscope attached to a cooled charge-coupled device camera (Retiga EX; QImaging, Surrey, BC, Canada) and a computer-generated video analysis system (Image-Pro Plus software; Media Cybernetics, Silver Spring, Md.).

IGF-IR = IGF-IR immunoprecipitation and anti-phosphotyrosine blot; format: cell-based, human
Procedure: Cells were lysed using an radioimmunoprecipitation assay buffer [50 mmol/L Tris-HCl, pH 7.4, 150 mmol/L NaCl, 1 mmol/L ethylenediamine tetraacetic acid, 10 mmol/L NaF, 1% Triton X-100, 0.1% sodium dodecyl sulfate, 1% sodium deoxycholate containing a cocktail of antiproteases (20 μg/ml leupeptin, 10 μg/ml aprotinin, 0.1 mmol/L phenylmethylsulfonyl fluoride, and 1 mmol/L dithiothreitol) and antiphosphates ([…] orthovanadate and 2 μg/ml pepstatin)], and 300 μg of protein extract was incubated with an antibody against IGF-IRβ for 1 hour at 4° C., followed by the addition of 4% protein A-beaded agarose left overnight, as previously described. The resulting protein-antibody conjugate was centrifuged at 4° C. and washed four times with phosphate-buffered saline. The final pellet was resuspended in sample buffer (0.5 mol/L Tris-HCl, pH 6.8, 10% sodium dodecyl sulfate, 10% glycerol, 4% 2-B-mercaptoethanol, and 0.05% bromphenol blue), and the mixture was boiled for 5 minutes. Proteins were resolved by 12% sodium dodecyl sulfate-polyacrylamide gel electrophoresis, transferred to nitrocellulose membranes, and then immunoblotted with anti-p-Tyr or anti-IGF-IR antibodies. The degree of expression or phosphorylation of immunodetected signaling molecules was measured by densitometry.
At the end of each experiment the cells were lysed as specified above, and 300 μg of protein extract were then precleared for 1 hour with normal rabbit agarose conjugated-IgG at 4° C. and incubated with rabbit polyclonal antibodies against IGF-IR-β, c-Src, or with Gα13 for 1 hour at 4° C., followed by the addition of 4% protein A-beaded agarose and left overnight. The resulting protein-antibody conjugate was centrifuged at 4° C. and washed four times with PBS. The final pellet was resuspended in sample buffer, and the proteins were resolved. Following immunoprecipitation of IGF-IR-β, the membrane was immunoblotted using monoclonal anti-p-Tyr antibody, stripped, and reprobed using anti-IGF-IR-β. Following immunoprecipitation of c-Src, the membranes were immunoblotted using polyclonal goat antibodies against anti-Gα13, while those immunoprecipitated with anti-Gα13 were developed with monoclonal anti-c-Src antibody. Blots were stripped and re-probed for equal loading.
The degree of expression or phosphorylation of immunodetected signaling molecules was measured by densitometry.

Gα13 and c-Src = test: Co-immunoprecipitation of Gα13 and c-Src; format: cell-based, human; conditions: vs untreated controls
[8] = agent added before aldosterone, readout not specified, partly data not shown

Molecule: CC(C)(C)c1cc(C=C(C#N)C#N)cc(Br)c1O [AG 1024]
- effect on aldosterone-induced increase in elastin mRNA levels ([1]; 24 hours): eliminated the stimulatory effect of aldosterone on elastin mRNA expression; also recorded: abolished aldosterone- and IGF-I-induced increases in elastin mRNA transcript levels
- effect on IGF-I-induced increase in elastin mRNA levels ([1]; pretreatment or siRNA transfection before 100 ng/ml IGF-I): could be prevented; also recorded: abolished aldosterone- and IGF-I-induced increases in elastin mRNA transcript levels
- effect on aldosterone-induced increase in insoluble elastin production ([2]; 72 hours): eliminated the stimulatory effect of aldosterone on elastin mRNA expression and insoluble elastin production; also recorded: returned insoluble elastin production to control values
- effect on IGF-I-induced increase in insoluble elastin production ([2]; pretreatment or siRNA transfection before 100 ng/ml IGF-I, 72 hours): could be prevented; also recorded: returned insoluble elastin production to control values

Molecule: Cc1cc2ncc(-c3ccccc3)nc2cc1C [AG 1295]
- effect on aldosterone-induced increase in elastin production (elastogenic response) [2, 8]: did not affect the aldosterone-induced increase in elastin production

Molecule: COc1cc2ncnc(Nc3cccc(Cl)c3)c2cc1OC [AG 1478]
- effect on aldosterone-induced increase in elastin production (elastogenic response) [2, 8]: did not affect the aldosterone-induced increase in elastin production

Molecule: COc1cccc(-c2cc(=O)c3ccccc3o2)c1N [PD 98059]
- insoluble elastin production, inhibitor alone ([2]; 10 μM, 72 hours, 10% FBS, vs untreated control): significantly increased insoluble elastin production
- effect on aldosterone-induced increase in insoluble elastin production ([2]; 72 hours): did not eliminate the elastogenic effect of aldosterone but instead led to a further increase in the production of elastin; also recorded: further increased insoluble elastin production

Molecule: Cc1cc(Cn2cnc3c2C[C@@H](C(=O)O)N(C(=O)C(c2ccccc2)c2ccccc2)C3)ccc1N(C)C [PD 123319]
- effect on aldosterone-induced increase in elastin production (elastogenic response) [2, 8]: did not abrogate their elastogenic response to aldosterone

Molecule: CC#C[C@]1(O)CC[C@H]2[C@@H]3CCC4=CC(=O)CCC4=C3[C@@H](c3ccc(N(C)C)cc3)C[C@@]21C [RU 486, mifepristone]
- effect on aldosterone-induced increase in collagen type I mRNA levels [3]: had no effect on the aldosterone-induced increase in collagen type I mRNA transcript levels
- effect on aldosterone-induced increase in elastin mRNA levels ([1]; 24 hours): had no effect on the aldosterone-induced increase in elastin mRNA levels; also recorded: neither spironolactone nor RU 486 eliminated this increase
- effect on aldosterone-induced collagen production [4]: but not with the glucocorticoid receptor (GR) antagonist RU 486 (1 μmol/L), abrogated aldosterone-induced collagen production

Molecule: NC(=O)c1ccc(-c2nc(-c3ccc4c(c3)OCO4)c(-c3ccccn3)[nH]2)cc1 [SB 431542]
- effect on aldosterone-induced increase in elastin production (elastogenic response) [2, 8]: did not affect the aldosterone-induced increase in elastin production

Molecule: C[C@@H](N)[C@H]1CC[C@H](C(=O)Nc2ccncc2)CC1 [Y-27632]
- effect on aldosterone-induced increase in elastin mRNA levels ([1]; 24 hours): did not eliminate the aldosterone-induced increase in elastin mRNA expression
- effect on aldosterone-induced increase in elastin production (elastogenic response) [2, 8]: did not eliminate the aldosterone-induced increase in elastin mRNA expression and elastin production

Molecule: CCCCc1nc(Cl)c(CO)n1Cc1ccc(-c2ccccc2-c2nn[nH]n2)cc1 [losartan, Losartan]
- effect on aldosterone-induced increase in elastin production (elastogenic response) [2, 8]: did not abrogate their elastogenic response to aldosterone

Molecule: CC(=O)S[C@@H]1CC2=CC(=O)CC[C@]2(C)[C@H]2CC[C@@]3(C)[C@@H](CC[C@@]34CCC(=O)O4)[C@H]12 [spironolactone]
- effect on aldosterone-induced increase in collagen type I mRNA levels [3]: returned the aldosterone-induced increase in collagen type I mRNA levels to untreated values
- effect on aldosterone-induced increase in elastin mRNA, adult cardiac fibroblasts [5]: had no effect on the aldosterone-induced increase in elastin mRNA transcript levels
- effect on aldosterone-induced increase in tropoelastin production [6]: failed to prevent; also recorded: did not abrogate the increase in tropoelastin production
- effect on aldosterone-induced increase in elastin mRNA levels ([1]; 24 hours): failed to prevent an aldosterone-induced increase in elastin mRNA expression; also recorded: neither spironolactone nor RU 486 eliminated this increase
- effect on aldosterone-induced collagen production [4]: abrogated aldosterone-induced collagen production; also recorded: eliminated any aldosterone-induced increase in collagen type I production
- effect on aldosterone-induced increase in elastic fiber deposition, adult cardiac fibroblasts [7]: did not affect aldosterone-induced increase in elastic fiber deposition
- effect on aldosterone-induced increase in insoluble elastin production ([2]; 72 hours): failed to prevent; also recorded: did not eliminate the increase in insoluble elastin production

Molecule: CN[C@@H]1C[C@H]2O[C@@](C)([C@@H]1OC)n1c3ccccc3c3c4c(c5c6ccccc6n2c5c31)C(=O)NC4 [staurosporine]
- effect on aldosterone-induced increase in elastin production (elastogenic response) [2]: did not abrogate the aldosterone-induced increase in elastin production

Molecule: CT04: cell-permeable Rho inhibitor (exoenzyme C3 transferase) from Cytoskeleton, Inc.
- effect on aldosterone-induced increase in elastin mRNA levels ([1]; 24 hours): did not eliminate the aldosterone-induced increase in elastin mRNA expression
- effect on aldosterone-induced increase in elastin production (elastogenic response) [2, 8]: did not eliminate the aldosterone-induced increase in elastin mRNA expression and elastin production

Molecule: IGF-I: recombinant human insulin-like growth factor-I
- elastin mRNA levels ([1]; 100 ng/ml IGF-I, 24 hours): approximately threefold increase
- tyrosine phosphorylation of the IGF-IR (IGF-IR; 10-minute exposure, 10% fetal bovine serum, aldosterone or BSA-conjugate 50 nM, IGF-I 100 ng/ml): produced a very similar effect
- tyrosine phosphorylation of the IGF-IR, dependence on serum (IGF-IR; presence vs absence of fetal bovine serum): induced phosphorylation of its IGF-IR, both in the presence and in the absence of fetal bovine serum
- net production of insoluble elastin ([2]; 100 ng/ml IGF-I, 72 hours): approximately threefold increase

Molecule: aluminum fluoride
- interaction between c-Src and Gα13 (Gα13 and c-Src): increased the interaction between c-Src and Gα13

Molecule: pertussis toxin
- effect on aldosterone-induced increase in insoluble elastin production ([2]; 72 hours): did not inhibit the elastogenic effect of aldosterone
- effect on aldosterone-induced increase in elastin production (elastogenic response) [2, 8]: did not abrogate the aldosterone-induced increase in elastin production; also recorded: does not attenuate the pro-elastogenic effect of aldosterone
